# Literature values in US20170101624A1, “METHODS OF ENHANCING T-CELL LONGEVITY AND USES THEREOF” (Washington University, priority 2015, published 2017).
# Tested on: Drp1 (Dnm1)
# Details: as disclosed in Cassidy-Stone et al. Developmental Cell 2008
structure (smiles),measurement,value
COc1cc(-n2c(=S)[nH]c3ccccc3c2=O)c(Cl)cc1Cl [compound A],efficacy relative to Mdivi-1 (inhibition of mitochondrial fission),full efficacy
